# Assay results published in patent publication US9382254B2, “Compounds and pharmaceutical compositions thereof for the treatment of cystic fibrosis” (Galapagos NV, priority 2013, dated 2016).
# Molecular target: T1, CFTR ΔF508 mutant (Homo sapiens, UniProt P13569, DEL508-508)
# T1 construct: expressed in transfected cells; host or cells: CFBE41o- (adenoviral transduction)
# Assay: YFP-halide influx assay for the CFTR-ΔF508 mutation, gluconate buffer
# Assay type: cell-based
# Details: CFBE41o- cells, forskolin 10.67 μM
# Method in brief: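 CFBE41o- cells adenovirally transduced with CFTR ΔF508 and YFP H148Q/I152L, then held 24 h at 27 °C or treated with CFTR modulator 24 h at 37 °C. I− quenching recorded for 7 s after injection; activity as 1-F/F0, EC50 from concentration plot.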
# T1 sequence (P13569 with tags, fused parts or gaps DEL508-508): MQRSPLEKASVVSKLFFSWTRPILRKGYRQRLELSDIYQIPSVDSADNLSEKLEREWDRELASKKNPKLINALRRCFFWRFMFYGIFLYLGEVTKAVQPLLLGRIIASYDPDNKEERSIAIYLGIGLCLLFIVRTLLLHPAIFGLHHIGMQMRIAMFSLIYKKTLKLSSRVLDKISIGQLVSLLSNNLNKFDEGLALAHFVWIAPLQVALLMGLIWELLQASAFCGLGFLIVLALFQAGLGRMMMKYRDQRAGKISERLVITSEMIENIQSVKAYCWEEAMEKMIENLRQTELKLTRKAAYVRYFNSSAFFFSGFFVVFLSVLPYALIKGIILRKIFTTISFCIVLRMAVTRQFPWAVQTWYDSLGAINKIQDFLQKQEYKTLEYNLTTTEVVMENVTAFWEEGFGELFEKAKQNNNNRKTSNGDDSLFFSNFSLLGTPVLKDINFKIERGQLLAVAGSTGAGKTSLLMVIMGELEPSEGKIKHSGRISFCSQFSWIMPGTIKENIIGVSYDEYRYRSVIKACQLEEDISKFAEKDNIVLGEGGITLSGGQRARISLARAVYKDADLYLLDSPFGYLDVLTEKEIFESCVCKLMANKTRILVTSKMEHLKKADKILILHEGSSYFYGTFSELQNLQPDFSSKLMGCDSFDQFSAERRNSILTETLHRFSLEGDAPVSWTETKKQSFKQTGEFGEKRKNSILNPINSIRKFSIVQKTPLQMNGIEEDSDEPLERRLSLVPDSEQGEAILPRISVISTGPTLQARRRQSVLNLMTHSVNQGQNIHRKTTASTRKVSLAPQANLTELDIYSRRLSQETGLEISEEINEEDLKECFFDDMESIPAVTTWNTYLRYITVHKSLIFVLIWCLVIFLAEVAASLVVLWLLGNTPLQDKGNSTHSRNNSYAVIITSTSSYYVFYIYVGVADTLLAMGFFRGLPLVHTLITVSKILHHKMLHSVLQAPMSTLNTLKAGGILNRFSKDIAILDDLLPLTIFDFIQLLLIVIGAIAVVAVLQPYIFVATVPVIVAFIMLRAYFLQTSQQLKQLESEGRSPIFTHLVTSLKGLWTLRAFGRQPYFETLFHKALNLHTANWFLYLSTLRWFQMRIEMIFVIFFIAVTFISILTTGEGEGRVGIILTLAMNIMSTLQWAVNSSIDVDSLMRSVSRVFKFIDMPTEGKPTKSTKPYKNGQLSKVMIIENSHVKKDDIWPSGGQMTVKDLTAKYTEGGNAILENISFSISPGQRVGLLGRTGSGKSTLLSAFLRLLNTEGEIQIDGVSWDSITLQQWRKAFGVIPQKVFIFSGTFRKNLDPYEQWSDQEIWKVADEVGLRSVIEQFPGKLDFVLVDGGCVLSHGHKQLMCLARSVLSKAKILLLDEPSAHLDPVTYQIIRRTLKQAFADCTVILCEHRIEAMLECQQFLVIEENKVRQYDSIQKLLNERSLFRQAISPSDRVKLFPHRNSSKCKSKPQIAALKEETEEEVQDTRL
row,EC50 [nM],Compound
1,169,"Cc1ccc(C(=O)Nc2sc(S(=O)(=O)N(C)C)cc2C(N)=O)s1 [Compound 15, N-(3-carbamoyl-5-(N,N-dimethylsulfamoyl)thiophen-2-yl)-5-methylthiophene-2-carboxamide]"
2,628,"NC(=O)c1cc(S(=O)(=O)N2CCCCC2)sc1NC(=O)c1cc2ccccc2s1 [Compound 10, N-(3-carbamoyl-5-(piperidin-1-ylsulfonyl)thiophen-2-yl)benzo[b] thiophene-2-carboxamide]"
3,135,"CN(C)S(=O)(=O)c1cc(C(N)=O)c(NC(=O)c2ccccc2F)s1 [Compound 74, 5-(N,N-dimethylsulfamoyl)-2-(2-fluorobenzamido) thiophene-3-carboxamide]"
4,118,"NC(=O)c1cc(S(=O)(=O)N2CCCCC2)sc1NC(=O)c1ccccc1F [Compound 19, 2-(2-fluorobenzamido)-5-(piperidin-1-ylsulfonyl)thiophene-3-carboxamide]"
5,> 1000,"CN1CCC(N(C)S(=O)(=O)c2cc(C(N)=O)c(NC(=O)c3ccccc3F)s2)CC1 [Compound 155, 2-(2-fluorobenzamido)-5-(N-methyl-N-(1-methylpiperidin-4-yl)sulfamoyl) thiophene-3-carboxamide]"
6,> 1000,"NC(=O)c1cc(S(=O)(=O)N2CCOCC2)sc1NC(=O)c1ccnnc1 [Compound 80, N-(3-carbamoyl-5-(morpholinosulfonyl)thiophen-2-yl)pyridazine-4-carboxamide]"
7,290,"NC(=O)c1cc(S(=O)(=O)N2CCCCC2)sc1NC(=O)c1cnccn1 [Compound 34, N-(3-carbamoyl-5-(piperidin-1-ylsulfonyl)thiophen-2-yl)pyrazine-2-carboxamide]"
8,253,"CC(C)(C)c1cc(C(=O)Nc2sc(S(=O)(=O)c3ccccc3)cc2C(N)=O)n[nH]1 [Compound 96, 5-tert-butyl-N-(3-carbamoyl-5-(phenylsulfonyl)thiophen-2-yl)-1H-pyrazole-3-carboxamide]"
9,320,"CS(=O)(=O)c1cc(C(N)=O)c(NC(=O)c2ccccc2O)s1 [Compound 211, 2-(2-hydroxybenzamido)-5-(methylsulfonyl)thiophene-3-carboxamide]"
10,213,"CN(Cc1ccc(F)cc1)S(=O)(=O)c1cc(C(N)=O)c(NC(=O)c2ccccc2F)s1 [Compound 106, 2-(2-fluorobenzamido)-5-(N-(4-fluorobenzyl)-N-methylsulfamoyl) thiophene-3-carboxamide]"
11,3330,"NC(=O)c1cc(S(=O)(=O)N2CCOCC2)sc1NC(=O)C1(O)CCOCC1 [Compound 200, N-(3-carbamoyl-5-(morpholinosulfonyl)thiophen-2-yl)-4-hydroxytetrahydro-2H-pyran-4-carboxamide]"
12,> 1000,"NC(=O)c1cc(S(=O)(=O)N2CCOCC2)sc1NC(=O)c1ncco1 [Compound 98, N-(3-carbamoyl-5-(morpholinosulfonyl)thiophen-2-yl)oxazole-2-carboxamide]"
13,242,"COc1ccc(CN(C)S(=O)(=O)c2cc(C(N)=O)c(NC(=O)c3ccccc3F)s2)cc1 [Compound 147, 2-(2-fluorobenzamido)-5-(N-(4-methoxybenzyl)-N-methylsulfamoyl)thiophene-3-carboxamide]"
14,568,"N#Cc1cccc(C(=O)Nc2sc(S(=O)(=O)N3CCCCC3)cc2C(N)=O)c1 [Compound 11, 2-(3-cyanobenzamido)-5-(piperidin-1-ylsulfonyl) thiophene-3-carboxamide]"
15,642,"CC(C)(C)c1ccc(C(=O)Nc2sc(S(=O)(=O)N3CCCCC3)cc2C(N)=O)s1 [Compound 23, 5-tert-butyl-N-(3-carbamoyl-5-(piperidin-1-ylsulfonyl)thiophen-2-yl) thiophene-2-carboxamide]"
16,887,"NC(=O)c1cc(S(=O)(=O)N2CCCCC2)sc1NC(=O)c1ccc2ncsc2c1 [Compound 12, N-(3-carbamoyl-5-(piperidin-1-ylsulfonyl)thiophen-2-yl)benzo[d] thiazole-6-carboxamide]"
17,210,"Cc1cc(F)ccc1C(=O)Nc1sc(S(=O)(=O)N2CCOCC2)cc1C(N)=O [Compound 169, 2-(4-fluoro-2-methylbenzamido)-5-(morpholinosulfonyl) thiophene-3-carboxamide]"
18,191,"NC(=O)c1cc(S(=O)(=O)N2CC(F)(F)C2)sc1NC(=O)c1ccccc1F [Compound 126, 5-(3,3-diflluoroazetidin-1-ylsulfonyl)-2-(2-fluorobenzamido) thiophene-3-carboxamide]"
19,352,"CC(C)(C)C(=O)Nc1sc(S(=O)(=O)c2ccc(F)cc2)cc1C(N)=O [Compound 112, 5-(4-fluorophenylsulfonyl)-2-pivalamidothiophene-3-carboxamide]"
20,953,"Cc1c(S(=O)(=O)N2CCOCC2)sc(NC(=O)C(C)(C)C)c1C(N)=O [Compound 92, 4-methyl-5-(morpholinosulfonyl)-2-pivalamidothiophene-3-carboxamide]"

row,EC50 [nM],Compound
1,182,"NC(=O)c1cc(S(=O)(=O)N2CCCCC2)sc1NC(=O)c1cscn1 [Compound 59, N-(3-carbamoyl-5-(piperidin-1-ylsulfonyl)thiophen-2-yl)thiazole-4-carboxamide]"
2,290,"CC(C)(C)c1ccc(C(=O)Nc2sc(S(=O)(=O)N3CCCCC3)cc2C(N)=O)cc1 [Compound 27, 2-(4-tert-butylbenzamido)-5-(piperidin-1-ylsulfonyl)thiophene-3-carboxamide]"
3,1600,"CN(C)C1CN(S(=O)(=O)c2cc(C(N)=O)c(NC(=O)c3ccccc3F)s2)C1 [Compound 187, 5-(3-(dimethylamino)azetidin-1-ylsulfonyl)-2-(2-fluorobenzamido)thiophene-3-carboxamide]"
4,130,"CN(C(C)(C)C)S(=O)(=O)c1cc(C(N)=O)c(NC(=O)c2ccccc2F)s1 [Compound 107, 5-(N-tert-butyl-N-methylsulfamoyl)-2-(2-fluorobenzamido) thiophene-3-carboxamide]"
5,1520,"NC(=O)c1cc(S(=O)(=O)N2CCOCC2)sc1NC(=O)c1ccccn1 [Compound 91, N-(3-carbamoyl-5-(morpholinosulfonyl)thiophen-2-yl) picolinamide]"
6,400,"CCS(=O)(=O)c1cc(C(N)=O)c(NC(=O)c2ccccc2F)s1 [Compound 128, 5-(ethylsulfonyl)-2-(2-fluorobenzamido) thiophene-3-carboxamide]"
7,357,"NC(=O)c1cc(S(=O)(=O)N2CCCCC2)sc1NC(=O)c1cccc(F)c1 [Compound 14, 2-(3-fluorobenzamido)-5-(piperidin-1-ylsulfonyl)thiophene-3-carboxamide]"
8,2490,"NC(=O)c1cc(S(=O)(=O)N2CCCCC2)sc1NC(=O)C1(c2ccccc2)CC1 [Compound 57, 2-(1-phenylcyclopropanecarboxamido)-5-(piperidin-1-ylsulfonyl) thiophene-3-carboxamide]"
9,261,"Cc1c(S(=O)(=O)N2CCOCC2)sc(NC(=O)c2cc[nH]n2)c1C(N)=O [Compound 90, N-(3-carbamoyl-4-methyl-5-(morpholinosulfonyl)thiophen-2-yl)-1H-pyrazole-3-carboxamide]"
10,317,"N#Cc1ccc(C(=O)Nc2sc(S(=O)(=O)N3CCCCC3)cc2C(N)=O)cc1 [Compound 22, 2-(4-cyanobenzamido)-5-(piperidin-1-ylsulfonyl)thiophene-3-carboxamide]"
11,517,"CC(C)(O)C1CCN(S(=O)(=O)c2cc(C(N)=O)c(NC(=O)c3ccccc3F)s2)CC1 [Compound 149, 2-(2-fluorobenzamido)-5-(4-(2-hydroxypropan-2-yl)piperidin-1-ylsulfonyl) thiophene-3-carboxamide]"
12,3190,"Cc1ccc(C(=O)Nc2sc(S(=O)(=O)C3CCOCC3)cc2C(N)=O)s1 [Compound 84, N-(3-carbamoyl-5-(tetrahydro-2H-pyran-4-ylsulfonyl)thiophen-2-yl)-5-methylthiophene-2-carboxamide]"
13,1150,"NC(=O)c1cc(S(=O)(=O)N2CC(F)C2)sc1NC(=O)c1cc[nH]n1 [Compound 205, N-(3-carbamoyl-5-(3-fluoroazetidin-1-ylsulfonyl)thiophen-2-yl)-1H-pyrazole-3-carboxamide]"
14,361,"NC(=O)c1cc(S(=O)(=O)N(Cc2cccc(F)c2)C2CC2)sc1NC(=O)c1ccccc1F [Compound 156, 5-(N-cyclopropyl-N-(3-fluorobenzyl)sulfamoyl)-2-(2-fluorobenzamido) thiophene-3-carboxamide]"
15,1500,"NC(=O)c1cc(S(=O)(=O)N2CCCCC2)sc1NC(=O)Cc1ccc(F)cc1 [Compound 32, 2-(2-(4-fluorophenyl)acetamido)-5-(piperidin-1-ylsulfonyl)thiophene-3-carboxamide]"
16,739,"NC(=O)c1cc(S(=O)(=O)N2CCCCC2)sc1NC(=O)C1CC1 [Compound 42, 2-(cyclopropanecarboxamido)-5-(piperidin-1-ylsulfonyl) thiophene-3-carboxamide]"
17,468,"Cc1ccc(C(=O)Nc2sc(S(=O)(=O)Cc3ccccc3)cc2C(N)=O)s1 [Compound 82, N-(5-(benzylsulfonyl)-3-carbamoylthiophen-2-yl)-5-methylthiophene-2-carboxamide]"
18,396,"Cc1c(S(=O)(=O)N2CCOCC2)sc(NC(=O)c2ccccc2C(F)(F)F)c1C(N)=O [Compound 105, 4-methyl-5-(morpholinosulfonyl)-2-(2-(trifluoromethyl)benzamido) thiophene-3-carboxamide]"
19,1900,"NC(=O)c1cc(S(=O)(=O)N2CCCCC2)sc1NC(=O)c1cnn2ccccc12 [Compound 60, N-(3-carbamoyl-5-(piperidin-1-ylsulfonyl)thiophen-2-yl)pyrazolo[1,5-a]pyridine-3-carboxamide]"
20,221,"CN(C1CCOCC1)S(=O)(=O)c1cc(C(N)=O)c(NC(=O)c2ccccc2F)s1 [Compound 161, 2-(2-fluorobenzamido)-5-(N-methyl-N-(tetrahydro-2H-pyran-4-yl)sulfamoyl) thiophene-3-carboxamide]"
